Experiments:
[1] = system: antibodies in sera from SARS patients (sera 1a, 1b, 2, 6, 37, 62, London, SARS-yellow, SARS-green); format: binding, human; set-up: Binding of serum 6 to linear peptides of protein X1 of SARS-CoV Urbani / Binding of serum 37 to linear peptides of protein X1 of SARS-CoV Urbani / Binding of serum 6 to looped/cyclic peptide (PEPSCAN-ELISA) / Binding of serum 37 to looped/cyclic peptide (PEPSCAN-ELISA) / Binding of serum 37 to looped/cyclic peptides of protein X1 of SARS-CoV Urbani / Binding of serum 6 to linear peptides of protein X2 / Binding of serum 37 to linear peptides of protein X2 / Binding of serum 37 to looped/cyclic peptides of protein X2 of SARS-CoV Urbani / Binding of serum 6 to linear peptides of protein M of SARS-CoV Urbani / Binding of serum 37 to linear peptides of protein M of SARS-CoV Urbani / Binding of serum 6 to looped/cyclic peptides of protein M of SARS-CoV Urbani / Binding of serum 37 to looped/cyclic peptides of protein M of SARS-CoV Urbani / Binding of serum 6 to linear peptides of protein X3 of SARS-CoV Urbani / Binding of serum 37 to linear peptides of protein X3 of SARS-CoV Urbani / Binding of serum 37 to looped/cyclic peptides of protein X3 of SARS-CoV Urbani / Binding of serum 6 to linear peptides of protein X4 of SARS-CoV Urbani / Binding of serum 37 to linear peptides of protein X4 of SARS-CoV Urbani / Binding of serum 37 to looped/cyclic peptides of protein X4 of SARS-CoV Urbani / Binding of serum 6 to linear peptides of protein X5 of SARS-CoV Urbani / Binding of serum 37 to linear peptides of protein X5 of SARS-CoV Urbani / Binding of serum 37 to looped/cyclic peptides of protein X5 of SARS-CoV Urbani / Binding of serum 6 to linear peptides of protein N of SARS-CoV Urbani / Binding of serum 37 to linear peptides of protein N of SARS-CoV Urbani / Binding of serum 6 to linear peptide (PEPSCAN-ELISA) / Binding of serum 1a to looped/cyclic peptides of protein N of SARS-CoV Urbani / Binding of serum 1b to looped/cyclic peptides of protein N of SARS-CoV Urbani / Binding of serum 2 to looped/cyclic peptides of protein N of SARS-CoV Urbani / Binding of serum 6 to looped/cyclic peptides of protein N of SARS-CoV Urbani / Binding of serum 37 to looped/cyclic peptides of protein N of SARS-CoV Urbani / Binding of serum 62 to looped/cyclic peptides of protein N of SARS-CoV Urbani / Binding of serum London to looped/cyclic peptides of protein N of SARS-CoV Urbani / Binding of serum SARS-green to looped/cyclic peptides of protein N of SARS-CoV Urbani: unit not given here
[2] = system: control sera (pooled serum of ten healthy LUMC hospital workers; commercial negative donor pooled serum from the Dutch bloodbank); format: binding, human; set-up: Binding of Control serum LUMC to linear peptides / Binding of Control serum Blood-bank to linear peptides / Binding of Control serum LUMC to looped peptides / Binding of Control Serum Blood-Bank to Looped peptides / Binding of Control serum LUMC to linear peptides of the protein M of SARS-CoV Urbani / Binding of Control serum Blood-bank to linear peptides of the protein M of SARS-CoV Urbani / Binding of Control serum LUMC to looped peptides of the protein M of SARS-CoV Urbani / Binding of Control Serum Blood-Bank to Looped peptides of the protein M of SARS-CoV Urbani: unit not given here
[3] = system: rabbit serum obtained by immunizing a rabbit with the SARS-CoV strain Frankfurt 1; format: binding; set-up: Binding of a rabbit serum to linear peptides / Binding of a rabbit serum to looped peptides / Rabbit serum linear peptides / Rabbit serum looped peptides / Binding of a rabbit serum to linear peptides of protein N of SARS-CoV Urbani (Rabbit serum linear peptides) / Binding of a rabbit serum to looped/cyclic peptides of protein N of SARS-CoV Urbani (Rabbit serum looped peptides): unit not given here
[4] = system: recombinant human anti-SARS-CoV antibody 03-018; format: binding; set-up: Binding of antibody 03-018 to linear peptides of the N protein of SARS-CoV Urbani / Binding of antibody 03-018 to looped/cyclic peptides of the N protein of SARS-CoV Urbani: unit not given here

Sequence | Binding of serum 1a to looped/cyclic peptides of protein N of SARS-CoV Urbani [1] | Binding of serum 1b to looped/cyclic peptides of protein N of SARS-CoV Urbani [1] | Binding of serum 2 to looped/cyclic peptides of protein N of SARS-CoV Urbani [1] | Binding of serum 6 to looped/cyclic peptides of protein N of SARS-CoV Urbani [1] | Binding of serum 37 to looped/cyclic peptides of protein N of SARS-CoV Urbani [1] | Binding of serum 62 to looped/cyclic peptides of protein N of SARS-CoV Urbani [1] | Binding of serum London to looped/cyclic peptides of protein N of SARS-CoV Urbani [1] | Binding of serum SARS-green to looped/cyclic peptides of protein N of SARS-CoV Urbani [1] | Binding of serum SARS-yellow to looped/cyclic peptides of protein N of SARS-CoV Urbani [1] | Binding of Control Serum Blood-Bank to Looped peptides [2] | Binding of Control serum Blood-bank to linear peptides [2] | Binding of Control serum LUMC to linear peptides [2] | Binding of Control serum LUMC to looped peptides [2] | Binding of a rabbit serum to linear peptides of protein N of SARS-CoV Urbani (Rabbit serum linear peptides) [3] | Binding of a rabbit serum to looped/cyclic peptides of protein N of SARS-CoV Urbani (Rabbit serum looped peptides) [3] | Binding of antibody 03-018 to linear peptides of the N protein of SARS-CoV Urbani [4] | Binding of antibody 03-018 to looped/cyclic peptides of the N protein of SARS-CoV Urbani [4] | Binding of serum 1a to linear peptides of protein N of SARS-CoV Urbani [1] | Binding of serum 1b to linear peptides of protein N of SARS-CoV Urbani [1] | Binding of serum 2 to linear peptides of protein N of SARS-CoV Urbani [1] | further results
RSSSRSRGNSRNSTP | 0.2 | 0.2 | 0.2 | 0.1 | 0.5 | 0.3 | 0.3 | 0.2 | 0.3 | 0.4 | 0.9 | 0.8 | 0.4 | 0.1 | 0.2 | 0.1 | 0.2 |  |  |  | Binding of serum 1a to linear peptide (PEPSCAN-ELISA) [1]: 0.3; Binding of serum 1b to linear peptide (PEPSCAN-ELISA) [1]: 0.1; Binding of serum 2 to linear peptide (PEPSCAN-ELISA) [1]: 0.2; Binding of serum 6 to linear peptide (PEPSCAN-ELISA) [1]: 0.2; Binding of serum 37 to linear peptide (PEPSCAN-ELISA) [1]: 0.5; Binding of serum 62 to linear peptide (PEPSCAN-ELISA) [1]: 0.6; Binding of serum London to linear peptide (PEPSCAN-ELISA) [1]: 0.5; Binding of serum SARS-green to linear peptide (PEPSCAN-ELISA) [1]: 0.2; Binding of serum SARS-yellow to linear peptide (PEPSCAN-ELISA) [1]: 0.5
RVRGGDGKMKELSPR | 0.3 | 0.2 | 0.4 | 0.4 | 0.6 | 0.5 | 0.4 | 0.1 | 0.6 | 0.7 | 0.8 | 0.9 | 0.7 | 0.2 | 0.6 | 0.1 | 0.2 | 0.3 | 0.2 | 0.3 | Binding of serum 6 to linear peptides of protein N of SARS-CoV Urbani [1]: 0.2; Binding of serum 37 to linear peptides of protein N of SARS-CoV Urbani [1]: 0.7; Binding of serum 62 to linear peptides of protein N of SARS-CoV Urbani [1]: 0.8; Binding of serum London to linear peptides of protein N of SARS-CoV Urbani [1]: 0.5; Binding of serum SARS-green to linear peptides of protein N of SARS-CoV Urbani [1]: 0.6; Binding of serum SARS-yellow to linear peptides of protein N of SARS-CoV Urbani [1]: 0.7
RWYFYYLGTGPEASL | 0.4 | 0.4 | 0.5 | 0.3 | 1.1 | 0.9 | 0.5 | 0.8 | 0.7 | 0.7 | 0.6 | 0.7 | 0.8 | 0.2 | 0.6 | 0.1 | 0.2 | 0.3 | 0.2 | 0.2 | Binding of serum 6 to linear peptides of protein N of SARS-CoV Urbani [1]: 0.2; Binding of serum 37 to linear peptides of protein N of SARS-CoV Urbani [1]: 0.8; Binding of serum 62 to linear peptides of protein N of SARS-CoV Urbani [1]: 0.8; Binding of serum London to linear peptides of protein N of SARS-CoV Urbani [1]: 0.4; Binding of serum SARS-green to linear peptides of protein N of SARS-CoV Urbani [1]: 0.3; Binding of serum SARS-yellow to linear peptides of protein N of SARS-CoV Urbani [1]: 0.6

From patent US20070128217A1 (priority 2003, published 2007)
